Experimental data as given in US6605619B1, “Nitroxides as protectors against oxidatives stress” (The United States of America as represented by the …, priority 1992, dated 2003).
Entries after “also recorded” stand apart in the source; their conditions may differ. Marks after values point to notes of the source that are not given here.

B1: catalase: catalase (CAT), enzyme that can convert H2O2 to H2O (protein, UniProt P00432 2-527, looked up)
Catalase: ADNRDPASDQMKHWKEQRAAQKPDVLTTGGGNPVGDKLNSLTVGPRGPLLVQDVVFTDEMAHFDRERIPERVVHAKGAGAFGYFEVTHDITRYSKAKVFEHIGKRTPIAVRFSTVAGESGSADTVRDPRGFAVKFYTEDGNWDLVGNNTPIFFIRDALLFPSFIHSQKRNPQTHLKDPDMVWDFWSLRPESLHQVSFLFSDRGIPDGHRHMNGYGSHTFKLVNANGEAVYCKFHYKTDQGIKNLSVEDAARLAHEDPDYGLRDLFNAIATGNYPSWTLYIQVMTFSEAEIFPFNPFDLTKVWPHGDYPLIPVGKLVLNRNPVNYFAEVEQLAFDPSNMPPGIEPSPDKMLQGRLFAYPDTHRHRLGPNYLQIPVNCPYRARVANYQRDGPMCMMDNQGGAPNYYPNSFSAPEHQPSALEHRTHFSGDVQRFNSANDDNVTQVRTFYLKVLNEEQRKRLCENIAGHLKDAQLFIQKKAVKNFSDVHPEYGSRIQALLDKYNEEKPKNAVHTYVQHGSHLSAREKANL

Assays:
[1] = EPR signal of nitroxides exposed to O2 flux formed by HX/XO (spin-loss); assay type: biochemical; conditions: for Steady state EPR signal (%): % from total R′RNO + R′RNOH after exposure to 5 mM HX + 0.03 U/ml XO in air-saturated PBS pH 7.2
Method: For EPR experiments, samples (0.05-0.1 ml) either of solutions of chemicals or cell suspensions were drawn by a syringe into a gas-permeable teflon capillary of 0.8 mm inner diameter, 0.05 mm wall thickness (Zeus Industrial Products, Inc. Raritan, N.J.). Each capillary was folded twice, inserted into a narrow quartz tube which was open at both ends (2.5 mm ID), and then placed horizontally into the EPR cavity. During the experiments, gases of desired compositions were blown around the sample without having to disturb the alignment of the tube within the EPR cavity. EPR spectra were recorded in a Varian E4 (or E9) X-band spectrometer, with field set at 3357 G, modulation frequency of 100 KHz, modulation amplitude of 1 G and non-saturating microwave power. The EPR spectrometer was interfaced to an IBM-PC through an analog-to-digital converter and a data translation hardware (DT2801) and the spectra were digitized using commercial acquisition software, enabling subtraction of background signals. To study the kinetics of the spin-loss, the spectra were deliberately overmodulated, and the magnetic field was kept constant while the intensity of the EPR signal was followed.

[2] = Water/octanol partition of nitroxides, ratio determined by EPR; assay type: physicochemical; conditions: Octanol:water
From the text: CHD, 2-spirocyclohexane doxyl(2-spirocyclohexane-5,5-dimethyl-3-oxazolidinoxyl) and OXANO, 2-ethyl-2,5,5-trimethyl-3-oxazolidine-1-oxyl as well as other nitroxides were synthesized as described by Keana et al (J. Am. Chem. Soc., 89, 3055-3056, 1967) For the general synthesis of the cyclic amines, the appropriate starting ketone was reacted with 2-amino-2-methyl-1-propanol in benzene in the presence of catalytic amounts of p-toluene sulfonic acid. As the cyclic structure formed, water was eliminated. The volume of water collected in a Dean Stark apparatus was monitored and used to gauge the reaction progress. The amines thus produced were purified through fractional distillation under reduced pressure, characterized by 220 MHz ^1H NMR, IR, UV, either EI or CI mass spectroscopy, and subsequently oxidized to the corresponding nitroxides using m-chloroperbenzoic acid. The nitroxides were purified by silica flash chromatography (Still et al, J. Org. Chem., 43, 2923-2925, 1978). Water/octanol ratios were determined by placing a quantity of nitroxide in water+octanol within a separatory funnel. The mixture was shaken thoroughly and allowed to separate for 15 min, whereupon aliquots were taken from both fractions and the ratio of nitroxide distribution was determined using electron paramagnetic resonance (EPR) spectroscopy, by comparing the intensities of signal obtained under N2.

[3] = SOD-inhibitable ferricytochrome c reduction assay, rate constants of reaction with O2 (SOD-like activity); assay type: biochemical; conditions: low ionic strength (10 mM HEPES), pH 7.0, 22° C.
From the text: As a further check, the reaction of representatives of both 5- and 6-membered cyclic nitroxides with O2 was studied. The SOD-inhibitable ferricytochrome c reduction assay (Fridovich, Handbook of Methods for Oxygen Radical Research, 213-215, 1985) was used to determine rate constants of reaction with O2. […] The reaction was started by adding 0.01 U/ml XO and the rate of ferricytochrome c reduction, in the absence (V) and in the presence (v) of various nitroxides, was spectrophotometrically followed at 550 nm. Both reference and sample cuvettes contained all the reagents, with the reference cuvette containing 100 units/ml SOD, thereby eliminating spurious reactions from interfering with the determination of rate constants. Data were analyzed by plotting V/v as a function of [nitroxide] and k1 was calculated, knowing kCytC+superoxide, according to:
(V/v)−1=k1x[nitroxide]/kCytC+superoxidex[Cyt−c^III].

kidneys of mice = assay: Post-irradiation protection after local kidney irradiation, weight gain and kidney histology; assay type: in vivo; conditions: 28 weeks
Method: This hypothesis has been tested in experiments where both kidneys of mice were locally irradiated with single, acute doses of radiation. […] At 28 weeks after irradiation, the animals were sacrificed, and histological analysis was performed on their kidneys to assess damage.

V79 cells = assay: Cytotoxicity of the agents alone, clonogenic assay; assay type: cell-based, Chinese hamster; conditions: concentrations used: catalase 100 U/ml; SOD 100 μg/ml; DF 500 μM; nitroxides 5 mM
Method: For subsequent studies, the most lipophilic nitroxide, CHD, and the most hydrophilic one, TEMPOL, were chosen.
Chinese hamster V79 cells were grown in F12 medium supplemented with 10% fetal calf serum, penicillin, and streptomycin. Survival was assessed in all studies by the clonogenic assay. The plating efficiency range between 80-90%. Stock cultures of exponentially growing cells were trypsinized, rinsed, and plated (5×10^5 cells/dish) into a number of 100 mm petri dishes and incubated 16 h at 37° C. prior to experimental protocols. Cells were exposed for 1 h at 37° C. to either 0.5 mM hypoxanthine (HX)+0.05 U/ml of xanthine oxidase (XO) for varying lengths of time, or to H2O2 at different concentrations. To assess possible modulation in cytotoxicity, catalase, 100 U/ml; SOD, 100 μg/ml; DF, 500 μM; and 5 mM of each of the nitroxides from Table 1 were added to parallel cultures. CHD was prepared in a stock solution in ethanol and diluted into medium such that the final concentration was 5 mM. […] TEMPOL is water soluble and was prepared directly in tissue culture medium. […] Following treatment, cells were rinsed, trypsinized, counted, and plated for macroscopic colony formation. […] Plates were incubated 7 days, after which colonies were fixed with methanol/acetic acid, stained with crystal violet, and counted. Colonies containing >50 cells were scored. […]

C3H mice [4] = assay: Protection of mice against whole body radiation, 30 day survival; assay type: in vivo
Method: Controls were given saline.
Controls were given saline. Survival was recorded 30 days after exposure to radiation. The LD50(30) refers to that dose of radiation at which 50% of the mice survived 30 days after exposure.

[5] = test system: Chinese hamster V79 cells; assay: In vitro protection against ionizing radiation, clonogenic survival; assay type: cell-based; conditions: 100 mM TEMPOL 10 min prior to irradiation
DNA-Fe(II) = assay: Reaction of nitroxide with DNA-Fe(II), EPR spin-loss and OD353nm; assay type: biochemical, Salmon; conditions: TEMPOL hypoxically mixed with DNA-Fe(II)
Method: All solutions always contained 0.1 mg/ml Salmon DNA. The appearance of DNA-Fe(III) was spectrophotometrically monitored at 353 nm, whereas the spin-loss of CHD was monitored by following its EPR signal. To study the time-dependence of ΔOD353nm (∘), 1 mM CHD was mixed with 0.1 mM Fe(II). To follow the spin-loss of CHD (□), 1 mM Fe(II) was mixed with 0.1 mM CHD.
It was also questioned whether the aerobic and hypoxic protection by CHD to H2O2 exposure was a result of CHD directly accepting electrons from ferrous ions, thereby preventing generation of .OH. Because cellular iron is chelated, the possible reaction of nitroxide with chelated iron(II) was examined by repeating the experiment in the presence of DNA. To study the possibility of nitroxide-induced oxidation of transition metals, CHD was hypoxically mixed with iron(II) in the presence of 0.1 mg/ml Salmon DNA. Consequently, DNA-Fe(III) was formed and the nitroxide EPR signal disappeared. The reaction kinetics were investigated by maintaining either CHD or Fe(II) in excess while the absorbance due to DNA-Fe(III) and the nitroxide spin-loss were monitored respectively (FIG. 6). Both the decay of the EPR signal and the appearance of the OD353nm obeyed pseudo 1st order kinetics from which the 2nd order reaction rate constant was calculated as 44 M^−1s^−1 or 33 M^−1s^−1 using the data from EPR or optical absorption, respectively.

C3H mice [6] = assay: Nitroxide-induced weight loss, chronic oral administration in drinking water; assay type: in vivo; conditions: 10 mg per ml in drinking water
From the text: Thus, nitroxide given over extended periods appears to cause weight loss in animals.

[7] = test system: Chinese hamster V79 cells; assay: Protection of cells exposed to HX/XO, clonogenic survival; assay type: cell-based; conditions: 0.05 U/ml XO + 0.5 mM HX, 37° C.; 5 mM nitroxide; 100 U/ml catalase; SOD; 500 μM DF preincubated 2 h
Method: Chinese hamster V79 cells were grown in F12 medium supplemented with 10% fetal calf serum, penicillin, and streptomycin. Survival was assessed in all studies by the clonogenic assay. The plating efficiency range between 80-90%. Stock cultures of exponentially growing cells were trypsinized, rinsed, and plated (5×10^5 cells/dish) into a number of 100 mm petri dishes and incubated 16 h at 37° C. prior to experimental protocols. Cells were exposed for 1 h at 37° C. to either 0.5 mM hypoxanthine (HX)+0.05 U/ml of xanthine oxidase (XO) for varying lengths of time, or to H2O2 at different concentrations. To assess possible modulation in cytotoxicity, catalase, 100 U/ml; SOD, 100 μg/ml; DF, 500 μM; and 5 mM of each of the nitroxides from Table 1 were added to parallel cultures. CHD was prepared in a stock solution in ethanol and diluted into medium such that the final concentration was 5 mM. […] TEMPOL is water soluble and was prepared directly in tissue culture medium. […] DF was added either 2 h prior to or during treatment while the other agents were present only during HX/XO or H2O2 treatment. Following treatment, cells were rinsed, trypsinized, counted, and plated for macroscopic colony formation. For each dose determination cells were plated in triplicate and the experiments were repeated a minimum of two times. Plates were incubated 7 days, after which colonies were fixed with methanol/acetic acid, stained with crystal violet, and counted. Colonies containing >50 cells were scored. Error bars represent S.D. of the mean and are shown when larger than the symbol.

[8] = test system: Chinese hamster V79 cells; assay: Protection of cells exposed to H2O2, clonogenic survival; assay type: cell-based; conditions: H2O2 for 1 h, 37° C., full medium; 5 mM nitroxide; 100 U/ml catalase; 100 μg/ml SOD; 500 μM DF preincubated 2 h
Method: Chinese hamster V79 cells were grown in F12 medium supplemented with 10% fetal calf serum, penicillin, and streptomycin. Survival was assessed in all studies by the clonogenic assay. The plating efficiency range between 80-90%. Stock cultures of exponentially growing cells were trypsinized, rinsed, and plated (5×10^5 cells/dish) into a number of 100 mm petri dishes and incubated 16 h at 37° C. prior to experimental protocols. Cells were exposed for 1 h at 37° C. to either 0.5 mM hypoxanthine (HX)+0.05 U/ml of xanthine oxidase (XO) for varying lengths of time, or to H2O2 at different concentrations. To assess possible modulation in cytotoxicity, catalase, 100 U/ml; SOD, 100 μg/ml; DF, 500 μM; and 5 mM of each of the nitroxides from Table 1 were added to parallel cultures. CHD was prepared in a stock solution in ethanol and diluted into medium such that the final concentration was 5 mM. […] TEMPOL is water soluble and was prepared directly in tissue culture medium. […] DF was added either 2 h prior to or during treatment while the other agents were present only during HX/XO or H2O2 treatment. Following treatment, cells were rinsed, trypsinized, counted, and plated for macroscopic colony formation. […] Plates were incubated 7 days, after which colonies were fixed with methanol/acetic acid, stained with crystal violet, and counted. Colonies containing >50 cells were scored. […]

Molecule | Steady state EPR signal (%) [1] [%] | Partition coefficient [2] | kR′RNO + O2 [3] | kidney histology, TEMPOL alone (kidneys of mice; no radiation) | kidney histology, 24 Gy plus TEMPOL (kidneys of mice; single dose 24 Gy, oral TEMPOL two weeks post-irradiation) | cytotoxicity of agent alone (V79 cells) | toxicity in irradiated mice (C3H mice [4]; 275 mg/kg intraperitoneally) | increase of LD50(30) (C3H mice [4]; 275 mg/kg intraperitoneally 10 min prior to whole body radiation 3 Gy to 13 Gy, versus saline controls) | effect of O2 on the EPR signal ([1]; exposure to O2 flux formed by HX/XO) | extent of protection against irradiation [5] | 2nd order reaction rate constant with DNA-Fe(II) (DNA-Fe(II)) [M⁻¹ s⁻¹] | toxicity on chronic oral administration (C3H mice [6]; >3 weeks) | reduction of weight compared to controls (C3H mice [6]; chronic oral administration (>3 weeks)) [%] | cell survival / protection from HX/XO [7] | protection against H2O2 cytotoxicity [8]
CCC1(C)OC(C)(C)CN1[O] (stereo not drawn) [OXANO, 2-ethyl-2,5,5-trimethyl-3-oxazolidine-1-oxyl] | 50 | 10 | 1.1 × 10^3 M − 1^s − 1 | – | – | – | – | – | – | – | – | – | – | – | –
CC1(C)CC(O)CC(C)(C)N1[O] [TEMPOL, 4-hydroxy-2,2,6,6-tetramethylpiperidine-1-oxyl] | 100 | – | 3.4 × 10^5 M − 1^s − 1 | identical to a section from a kidney of a control animal | protection against glomerular sclerosis and tubular cell loss | Neither catalase, SOD, DF, CHD, nor TEMPOL were cytotoxic alone | no toxicity | approximately 25% | no effect | approximately 2.5 fold | 40 | no apparent toxicity | 12.5 | fully protected | fully protected; also recorded: complete protection
B1 | – | – | – | – | – | – | – | – | – | – | – | – | – | complete protection | –
